# Where a SMILES comes first, the peptide text is derived from it. [ ]: non-standard residue; d: D form. The star is where a group is joined. ξ: configuration not given here. Octanoyl(7-Me) = CC(C)CCCCCC(=O)*; Hexanoyl(4ξ-Me) = CCC(C)CCC(=O)*; dOrn = NCCC[C@@H](N)C(=O)O; Orn = NCCC[C@H](N)C(=O)O; Dap = NC[C@H](N)C(=O)O
# Key:
# E. coli ATCC 25922 = assay type: cell-based, Escherichia coli; settings: for MIC (µg/mL) against E. coli (ATCC 25922): (Supplement 2)
# Description: (§1) Linear laterocidine (LL-OH, 4) and linear brevicidine (LB-OH, 5) were first synthesized by Fmoc SPPS, starting from 2-chlorotrityl (2-CT) chloride resin. The antibacterial activity of these peptides was then compared to brevicidine (1) and laterocidine (2) using minimum inhibitory concentration (MIC)/microbroth dilution assays (Table 1). The MICs of all peptides were determined against a panel of Gram-negative and Gram-positive ESKAPE pathogens. Additionally, a strain of E. coli carrying the mcr-1 gene was included in the panel. The mcr-1 gene is a transferrable plasmid that confers resistance against colistin, a last-resort antibiotic for Gram-negative infections, by reducing the overall negative charge of lipopolysaccharide (LPS) through modification of lipid A with phosphoethanolamine. The propensity for cationic antibiotics to bind to the cell membrane is therefore reduced. This gene has been observed in more than 27 bacterial species over six continents.[26] The spread of the mcr-1 gene could render colistin ineffectual; therefore, novel antibacterials are urgently required to overcome this form of resistance.
# (§2) All minimum inhibitory concentrations (MICs) were determined according to Clinical and Laboratory Standards Institute (CLSI) guidelines. Blood agar plates were inoculated with glycerol stocks of E. coli ATCC 25922, K. pneumoniae ATCC 13883, A. baumannii ATCC 17961, P. aeruginosa PAO1, and S. aureus USA300. The inoculated agar plates were then incubated for 16 h at 37 °C. Individually grown colonies were subsequently used to inoculate 5 mL aliquots of TSB that were then incubated at 37 °C with shaking at 220 rpm. E. coli 25922 MCR-1 glycerol stock was used to inoculate 5 mL of TSB supplemented with kanamycin that was then incubated for 16 h at 37 °C with shaking at 220 rpm. The next day the culture was diluted 100-fold in TSB supplemented with kanamycin and incubated at 37 °C with shaking at 220 rpm. In parallel, the lipopeptide antibiotics DMSO stocks to be assessed were serially diluted with MHB in polypropylene 96-well plates (50 μL in each well). Colistin sulfate stocks were dissolved in water before being diluted with MHB. Aliquots of the inoculated TSB were incubated until an OD600 of around 0.5 was reached. The bacterial suspensions were then diluted with MHB (2 × 10^5 CFU/mL) and added to the microplates containing the test compounds (50 μL to each well). The well plates were sealed with an adhesive membrane and after 18 h of incubation at 37 °C with shaking at 600 rpm, the wells were visually inspected for bacterial growth. MIC values reported are based on three technical replicates and defined as the lowest concentration of the compound that prevented visible growth of bacteria.
# E. coli (MCR-1) = assay type: cell-based, Escherichia coli; settings: microbroth dilution per CLSI, MHB, 18 h at 37 °C, visual inspection, three technical replicates, E. coli 25922 carrying mcr-1
# Description: as §1, §2
# K. pneumoniae ATCC 13883 = assay type: cell-based, Klebsiella pneumoniae; settings: microbroth dilution per CLSI, MHB, 18 h at 37 °C, visual inspection, three technical replicates
# Description: as §1, §2
# A. baumannii ATCC 17961 = assay type: cell-based, Acinetobacter baumannii; settings: microbroth dilution per CLSI, MHB, 18 h at 37 °C, visual inspection, three technical replicates
# Description: as §1, §2
# S. aureus USA300 = assay type: cell-based, Staphylococcus aureus; settings: microbroth dilution per CLSI, MHB, 18 h at 37 °C, visual inspection, three technical replicates
# Description: as §1, §2
Compound,MIC (µg/mL) against E. coli (ATCC 25922) (E. coli ATCC 25922) [µg/mL],other results
CCC(C)CCC(=O)N[C@H](CC(N)=O)C(=O)N[C@H](Cc1ccc(O)cc1)C(=O)N[C@H](Cc1c[nH]c2ccccc12)C(=O)N[C@H](CCCN)C(=O)N[C@@H](C)C(=O)NCC(=O)N[C@H](CCCN)C(=O)N[C@@H](Cc1c[nH]c2ccccc12)C(=O)N[C@H](C(=O)N[C@H](C(=O)NCC(=O)N[C@@H](CO)C(N)=O)[C@@H](C)CC)[C@@H](C)O (some centres unmarked) [LB(Ala5)-NH2 (21)] ({Hexanoyl(4ξ-Me)}-[dN][dY][dW][dOrn]AG[dOrn]WTIGS-NH2),>32,
CCC(C)CCC(=O)N[C@H](CC(N)=O)C(=O)N[C@H](Cc1ccc(O)cc1)C(=O)N[C@H](Cc1c[nH]c2ccccc12)C(=O)N[C@H](CCCN)C(=O)N[C@@H](CCCN)C(=O)NCC(=O)N[C@H](C)C(=O)N[C@@H](Cc1c[nH]c2ccccc12)C(=O)N[C@H](C(=O)N[C@H](C(=O)NCC(=O)N[C@@H](CO)C(N)=O)[C@@H](C)CC)[C@@H](C)O (stereo partly drawn) [LB(D-Ala7)-NH2 (23)] ({Hexanoyl(4ξ-Me)}-[dN][dY][dW][dOrn][Orn]G[dA]WTIGS-NH2),>32,
CCC(C)CCC(=O)N[C@H](CC(N)=O)C(=O)N[C@H](Cc1ccc(O)cc1)C(=O)N[C@H](Cc1c[nH]c2ccccc12)C(=O)N[C@H](CCCN)C(=O)N[C@@H](CCCN)C(=O)NCC(=O)N[C@H](CCCN)C(=O)N[C@@H](Cc1c[nH]c2ccccc12)C(=O)N[C@H](C(=O)N[C@@H](C)C(=O)NCC(=O)N[C@@H](CO)C(N)=O)[C@@H](C)O (some centres unmarked) [LB(Ala10)-NH2 (26)] ({Hexanoyl(4ξ-Me)}-[dN][dY][dW][dOrn][Orn]G[dOrn]WTAGS-NH2),>32,
CCC(C)CCC(=O)N[C@H](CC(N)=O)C(=O)N[C@H](Cc1ccc(O)cc1)C(=O)N[C@H](C)C(=O)N[C@H](CCCN)C(=O)N[C@@H](CCCN)C(=O)NCC(=O)N[C@H](CCCN)C(=O)N[C@@H](Cc1c[nH]c2ccccc12)C(=O)N[C@H](C(=O)N[C@H](C(=O)NCC(=O)N[C@@H](CO)C(N)=O)[C@@H](C)CC)[C@@H](C)O (stereo partly drawn) [LB(D-Ala3)-NH2 (19)] ({Hexanoyl(4ξ-Me)}-[dN][dY][dA][dOrn][Orn]G[dOrn]WTIGS-NH2),>32,
CCC(C)CCC(=O)N[C@H](CC(N)=O)C(=O)N[C@H](Cc1ccc(O)cc1)C(=O)N[C@H](Cc1c[nH]c2ccccc12)C(=O)N[C@H](CCCN)C(=O)N[C@@H](CCCN)C(=O)NCC(=O)N[C@H](CCCN)C(=O)N[C@@H](C)C(=O)N[C@H](C(=O)N[C@H](C(=O)NCC(=O)N[C@@H](CO)C(N)=O)[C@@H](C)CC)[C@@H](C)O (some centres unmarked) [LB(Ala8)-NH2 (24)] ({Hexanoyl(4ξ-Me)}-[dN][dY][dW][dOrn][Orn]G[dOrn]ATIGS-NH2),>32,
CC[C@H](C)[C@H](NC(=O)[C@H](CN)NC(=O)[C@H](Cc1c[nH]c2ccccc12)NC(=O)[C@@H](CCCN)NC(=O)CNC(=O)[C@H](CCCN)NC(=O)[C@@H](CCCN)NC(=O)[C@@H](Cc1c[nH]c2ccccc12)NC(=O)[C@@H](Cc1ccc(O)cc1)NC(=O)[C@@H](CO)NC(=O)CCCCCC(C)C)C(=O)N[C@@H](CC(N)=O)C(=O)NCC(=O)NCC(N)=O [LL(Dap9)-NH2 (52)] ({Octanoyl(7-Me)}-[dS][dY][dW][dOrn][Orn]G[dOrn]W[Dap]INGG-NH2),8,"Antibacterial activity (MIC) E. coli (MCR-1) (E. coli (MCR-1)): 8 µg/mL; Antibacterial activity (MIC) E. coli ATCC 25922 (E. coli ATCC 25922; MIC, microbroth dilution per CLSI, MHB, 18 h at 37 °C, visual inspection, three technical replicates): 8 µg/mL; Antibacterial activity (MIC) K. pneumoniae ATCC 13883 (K. pneumoniae ATCC 13883): 32 µg/mL; Antibacterial activity (MIC) A. baumannii ATCC 17961 (A. baumannii ATCC 17961): 16 µg/mL; Antibacterial activity (MIC) S. aureus USA300 (S. aureus USA300): >32 µg/mL"
